Experimental data reported in PMC4608580, “Synthesis and Evaluation of Biological Activity of Antimicrobial – Pro-Proliferative Peptide Conjugates” (PLoS ONE, 2015).
In brackets after ≈: the same amount, converted by molar mass. Residues, ends and D or L forms follow the SMILES beside them.

Columns and labels:
[1] = test system: Escherichia coli (PCM 2057); assay type: cell-based; settings: PCM 2057, 24 h
Description: (§1) Escherichia coli (PCM 2057), Staphylococcus aureus (PCM 2054), Staphylococcus epidermidis (PCM 2118), Pseudomonas aeruginosa (PCM 499) were obtained from Polish Collection of Microorganisms. Fungi strains Candida albicans (CCM 8186), Candida glabrata (CCM 8270), Candida parapsilosis (CCM 8260), Candida krusei (CCM 8271), Candida tropicalis (CCM 8264) were acquired from Czech Collection of Microorganisms.
(§2) Luria-Bertani broth (LB) and Sabouraud Dextrose broth (SB) (Biocorp, Poland) were used for cultivation of bacteria and fungi strains, respectively. Antimicrobial activity of peptides was analyzed through determination of MIC (minimal inhibitory concentration) parameter according to the standard microdilution technique performed on 96-well plates. Mueller-Hinton broth (MHB) was used as the working medium for all bacterial strains, while in case of fungi it was additionally supplemented with 2% glucose.
(§3) Briefly, inoculum was prepared from freshly grown cultures of microorganisms being at their exponential phase of growth. Each well of 96-well plates containing 100 μL of serially diluted peptides in PBS (phosphate buffer saline) at concentration ranging from 2 to 250 μg/mL were inoculated with 100 μL of approximately 10^5 CFU/mL of bacterial suspension or about 2.5 x 10^3 CFU/mL of fungi suspended in a double concentrated Mueller-Hinton broth (supplemented with 2% glucose for Candida spps.). Then plates were incubated overnight at 37°C and absorbance was read at 590 nm after 24 h. Cultures without peptide were treated as positive control, while uninoculated Mueller-Hinton broth was defined as negative control. All measurements were run at least in triplicate.
(§4) All peptides were screened against the wide range of microorganisms, including Gram-negative, Gram-positive bacteria and fungi from Candida species (Table 2). Broth microdilution method for MIC determination was used as a standard procedure. All assays were performed on liquid Mueller-Hinton broth, which was additionally supplemented with 2% glucose when fungicidal activity towards Candida spps. was analyzed.

[2] = test system: Pseudomonas aeruginosa (PCM 499); assay type: cell-based; settings: PCM 499, 24 h
Description: as §1, §2, §3, §4

[3] = test system: Staphylococcus aureus (PCM 2054); assay type: cell-based; settings: PCM 2054, 24 h
Description: as §1, §2, §3, §4

[4] = test system: Staphylococcus epidermidis (PCM 2118); assay type: cell-based; settings: PCM 2118, 24 h
Description: as §1, §2, §3, §4

[5] = Circular dichroism, alpha-helical content; assay type: physicochemical; settings: CD, mean residue ellipticity at 222 nm (Eq 1), peptide 0.4 mg/ml in 30 mM SDS, room temperature
Protocol: Circullar dichroism spectra of analyzed compounds were recorded on a Jasco J-815 spectropolarimeter using a quartz cell of 1 mm path length between 195–260 nm at room temperature. Peptides at concentration of 0.4 mg/ml were dissolved in water or 30 mM SDS solution. SDS micelle system was used as the simplified model of negatively charged lipid membrane. On the basis of the obtained results the alpha-helical content was determined from the mean residue ellipticities at 222 nm according to Eq 1: %Helix=([θ]obs/([θ]helixx(1−2.57/l))x100, (1) where [θ] obs is the experimentally observed mean-residue ellipticity at 222 nm, [θ]helix is the theoretical ellipticity of peptide of infinite length with a 100% helix population, taken as -39 500 deg·cm^2/dmol, and l is the number of peptide bonds.
Circular dichroism method was applied to obtain a basic information about the secondary structure of the synthesized compounds (with the exception of CAR, CAR3, DAL, CTEN2) in two chemical environments, water and 30 mM SDS. As expected, all the tested compounds in water adopted a random-coil structure, while in the presence of 30 mM SDS most of them formed α-helices with characteristic negative minima around 208 and 220 nm. […] The examples of CD spectra for selected peptides could be seen in supporting information (Figure A in S1 File). On the basis of the experimentally obtained values of the mean residue ellipticities of peptides at 222 nm their alpha-helical content was calculated according to the Eq 1 (Table 1).

[6] = test system: immortalized human HaCaT keratinocytes; assay: Cell proliferation assay (MTT); assay type: cell-based; settings: 72 h, serum-free DMEM, peptide at 1–25 μg/mL
Protocol: (§5) In our study two kind of cells were used: immortalized human HaCaT keratinocytes (DKFZ Heidelberg, Germany) and primary dermal fibroblasts obtained from 3 healthy donors. Both types of the used cell lines were grown in Dulbecco's modified Eagle's medium (DMEM) (Sigma–Aldrich, Germany), that contained […] of glucose, […] of L-glutamine, sodium pyruvate and sodium bicarbonate. Additionally, medium was supplemented with 10% of FCS (fetal calf serum, Sigma-Aldrich, Germany), 100 U/mL of penicillin and 100 μg/mL streptomycin (Sigma-Aldrich, Germany). The cells were grown in culture dishes (BD, USA) under standard conditions in a humidified atmosphere with 5% CO2 at 37°C and medium was changed every 2 days.
(§6) The fibroblasts and keratinocytes were seeded at density of 4500 and 6000 cells per well, respectively, into 96-well plates suspended in a medium supplemented with 10% of FCS. After 24 h the media were exchanged with serum- and antibiotic- free DMEM and tested peptides dissolved in PBS were added yielding final concentration ranging from 1 to 50 μg/mL. Cells were incubated for the next 24 hours, when the medium was exchanged again and fresh portion of peptides (used at the same concentrations as previously) was added. Incubation was continued for the next 48 hours (the overall time of cell exposition to peptide was 72 h). At the end of the experiment cells were treated with 20 μL of MTT (5 mg/mL in PBS). After 3 h at 37°C under 5% CO2 medium was discarded and replaced by 6mM HCl in isopropanol. After 15 min when the purple crystals of formazan were fully solubilized, absorbance was read at 570 nm with a plate reader. The optical density reflects the level of cell viability as MTT is converted in purple formazan product only in the presence of viable mitochondria of the living cells.
Fig 1 Pro-proliferative activity of the tested peptides towards human keratinocytes (A) and fibroblasts (B). Cells were incubated for 72 hours in serum-free DMEM medium in the presence of peptides applied at concentrations of 1,10, 25 and 50 μg/mL, respectively. The data represents results of MTT assay expressed as the percentage of the cell viability in comparison to their control sample (cells incubated in serum-free DMEM without tested peptides), additional positive control corresponds to the cells incubated in the presence of 10% FCS. All experiments were performed independently in triplicate. *P < 0.05, **P < 0.01, ***P < 0.001 vs. control.
In order to evaluate a long-term effect of peptides, experiments were carried out for 72 hours. Before addition of the tested compounds, the cell medium was exchanged for the fresh one not containing any serum or antibiotic.

[7] = test system: human primary dermal fibroblasts; assay: Cell proliferation assay (MTT); assay type: cell-based; settings: 72 h, serum-free DMEM, dose-response relationship, peptide at 50 μg/mL
Protocol: Biopsies of healthy human skin were obtained aseptically from three donors (47–69 years old) undergoing circumcision after obtaining their written informed consent. All the procedures were approved by the Ethics Committee of Medical University of Gdansk (NKEBN/483/2011. Issued: 2011-12-19). The samples were washed several times with sterile PBS (Sigma-Aldrich, Germany) containing antibiotic (200 U/mL penicillin and 200 μg/mL streptomycin), after which, the subcutaneous tissue was cut off with a sharp blade. The resulting sheets were cut into small fragments, washed two times with sterile PBS and treated with 6 U/mL dispase II (BD, USA) overnight at 4°C to separate epidermis and dermis. The dermis was then digested with 1.0 mg/mL collagenase type I (from Clostridium histolyticum Sigma-Aldrich, Germany) for 2 hours at 37°C to isolate fibroblasts. Cells were used between the 2nd and 4th passage in all experiments.
as §5
as §6, with “At the end of the experiment cells were treated with 20 μL of MTT (5 mg/mL in PBS). After 3 h at 37°C under 5% CO2 medium was discarded and replaced by 6mM HCl in isopropanol.” left out, “The optical density reflects the level of cell viability as MTT is converted in purple formazan product only in the presence of viable mitochondria of the living cells.” left out
Fig 1 Pro-proliferative activity of the tested peptides towards human keratinocytes (A) and fibroblasts (B). […] The data represents results of MTT assay expressed as the percentage of the cell viability in comparison to their control sample (cells incubated in serum-free DMEM without tested peptides), additional positive control corresponds to the cells incubated in the presence of 10% FCS. […]

B. cereus = assay type: cell-based; settings: 24 h
Protocol: as §2, §3, §4

MIC E.coli [1]: >125 µg/mL
MIC P. aeruginosa [2]: >125 µg/mL
MIC S.aureus [3]: >125 µg/mL
MIC S. epidermidis [4]: 7.8 µg/mL (≈ 3.83 µM)
α-helicity [5]: 27%
MIC B. cereus (B. cereus): >125 µg/mL
Compound: CC(C)C[C@H](NC(=O)CNC(=O)[C@@H](N)CCC(=O)O)C(=O)N[C@@H](CCC(=O)O)C(=O)N1CCC[C@H]1C(=O)NCC(=O)NCCOCCOCC(=O)N[C@@H](CCCCN)C(=O)N[C@@H](CCCCN)C(=O)N[C@H](C(=O)N[C@H](C(=O)N[C@@H](Cc1ccccc1)C(=O)N[C@@H](Cc1c[nH]c2ccccc12)C(=O)N[C@H](C(=O)N[C@@H](CCCCN)C(=O)N[C@@H](Cc1ccccc1)C(=O)N[C@@H](CCCCN)C(N)=O)C(C)C)C(C)C)C(C)C [CTEN2-PEG-KSLW] (HELM PEPTIDE1{E.G.L.E.P.G.[O=C(COCCOCCN[*:1])[*:2]].K.K.V.V.F.W.V.K.F.K.[am]}$$$$V2.0; N-terminus assumed)
Effect on HaCaT proliferation (MTT), in words [6]: noticeable pro-proliferatory activity
Effect on fibroblast cell count (MTT), in words [7]: highest cell count
